Experimental data reported in patent publication US20230303513A1, “OXOPYRROLIDINE UREA FPR2 AGONISTS” (BRISTOL-MYERS SQUIBB COMPANY, priority 2020, published 2023).

Key:
human FPR1 = human FPR1 (Homo sapiens (Human), UniProt P21462); assay: FPR1 cyclic adenosine monophosphate (cAMP) assay; type: cell-based; conditions: CHO cells overexpressing human FPR1; forskolin 10 μM, IBMX 200 μM; inhibition of cAMP production, HTRF; read-out: hFPR1 cAMP EC50
From the text: (§1) N-formyl peptide receptors (FPRs) are a family of chemo attractant receptors that facilitate leukocyte response during inflammation. FPRs belong to the seven-transmembrane G protein-coupled receptor superfamily and are linked to inhibitory G-proteins (Gi). Three family members (FPR1, FPR2 and FPR3) have been identified in humans and are predominantly found in myeloid cells with varied distribution and have also been reported in multiple organs and tissues. After agonist binding, the FPRs activate a multitude of physiological pathways, such as intra cellular signaling transduction, Ca^21 mobilization and transcription. The family interacts with a diverse set of ligands that includes proteins, polypeptides and fatty acid metabolites which activate both pro-inflammatory and pro-resolution downstream responses. FPR2 and FPR1 Cyclic Adenosine Monophosphate (cAMP) Assays were used to measure the activity of the compounds in this patent.
(§2) FPR2 and FPR1 Cyclic Adenosine Monophosphate (cAMP) Assays. A mixture of forskolin (5 μM final for FPR2 or 10 μM final for FPR1) and IBMX (200 μM final) were added to 384-well Proxiplates (Perkin-Elmer) pre-dotted with test compounds in DMSO (1% final) at final concentrations in the range of 0.020 nM to 100 μM. Chinese Hamster Ovary cells (CHO) overexpressing human FPR1 or human FPR2 receptors were cultured in F-12 (Ham's) medium supplemented with 10% qualified FBS, 250 μg/ml zeocin and 300 μg/ml hygromycin (Life Technologies). Reactions were initiated by adding 2,000 human FPR2 cells per well or 4,000 human FPR1 cells per well in Dulbecco's PBS (with calcium and magnesium) (Life Technologies) supplemented with 0.1% BSA (Perkin-Elmer). The reaction mixtures were incubated for 30 min at room temperature. The level of intracellular cAMP was determined using the HTRF HiRange cAMP assay reagent kit (Cisbio) according to manufacturer's instruction. Solutions of cryptate conjugated anti-cAMP and d2 flurorophore-labelled cAMP were made in a supplied lysis buffer separately. Upon completion of the reaction, the cells were lysed with equal volume of the d2-cAMP solution and anti-cAMP solution. After a 1-h room temperature incubation, time-resolved fluorescence intensity was measured using the Envision (Perkin-Elmer) at 400 nm excitation and dual emission at 590 nm and 665 nm. A calibration curve was constructed with an external cAMP standard at concentrations ranging from 1 μM to 0.1 μM by plotting the fluorescent intensity ratio from 665 nm emission to the intensity from the 590 nm emission against cAMP concentrations. The potency and activity of a compound to inhibit cAMP production was then determined by fitting to a 4-parametric logistic equation from a plot of cAMP level versus compound concentrations.

human FPR2 = human FPR2 (Homo sapiens (Human), UniProt P25090); assay: FPR2 cyclic adenosine monophosphate (cAMP) assay; type: cell-based; conditions: CHO cells overexpressing human FPR2; forskolin 5 μM, IBMX 200 μM; inhibition of cAMP production, HTRF; read-out: hFPR2 cAMP2 EC50
From the text: as §1, §2

Sequence of human FPR1 (P21462 whole entry): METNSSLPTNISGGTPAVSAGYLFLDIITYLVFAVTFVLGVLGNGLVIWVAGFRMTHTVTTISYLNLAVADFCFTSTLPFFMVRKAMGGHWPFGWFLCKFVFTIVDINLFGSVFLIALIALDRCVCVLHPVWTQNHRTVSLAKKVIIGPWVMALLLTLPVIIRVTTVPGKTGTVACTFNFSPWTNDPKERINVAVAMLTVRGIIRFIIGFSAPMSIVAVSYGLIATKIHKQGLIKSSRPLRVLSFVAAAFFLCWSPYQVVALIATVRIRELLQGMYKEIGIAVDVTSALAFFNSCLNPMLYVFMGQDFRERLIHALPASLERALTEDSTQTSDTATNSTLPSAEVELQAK
Sequence of human FPR2 (P25090 whole entry): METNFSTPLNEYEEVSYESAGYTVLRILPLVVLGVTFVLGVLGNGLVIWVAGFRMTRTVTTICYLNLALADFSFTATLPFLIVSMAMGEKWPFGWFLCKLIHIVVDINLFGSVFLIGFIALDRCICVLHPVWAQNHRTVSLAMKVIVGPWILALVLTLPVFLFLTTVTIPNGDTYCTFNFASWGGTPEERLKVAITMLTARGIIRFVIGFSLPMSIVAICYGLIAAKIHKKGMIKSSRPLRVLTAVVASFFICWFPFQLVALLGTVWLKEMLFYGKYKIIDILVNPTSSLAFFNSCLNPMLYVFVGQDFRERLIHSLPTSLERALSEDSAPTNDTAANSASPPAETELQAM

| EC50 (human FPR1) [nM] | EC50 (human FPR2) [nM] | Compound |
| --- | --- | --- |
| > 1000 | 23 | CNC(=O)C(C)Nc1ccnc(N2C[C@@H](c3c(F)cc(OC)cc3F)[C@H](NC(=O)N[C@H]3CC[C@H](C(F)F)CC3)C2=O)c1C(F)(F)F (single isomer, unassigned) [Example 76] |
| > 1000 | 25 | CNC(=O)CNc1ccnc(N2C[C@@H](c3c(F)cc(OC)cc3F)[C@H](NC(=O)N[C@H]3CC[C@H](C(F)F)CC3)C2=O)c1C(F)(F)F [Example 72] |
| 0.7 | 0.5 | COCCn1ccc(C)c(N2C[C@@H](c3c(F)cc(OC)cc3F)[C@H](NC(=O)NC3CCc4cc(OC)ccc4C3)C2=O)c1=O (stereo partly shown) [Example 7] |
| 11 | 4.5 | CCn1cccc(N2C[C@@H](c3c(F)cc(OC)cc3F)[C@H](NC(=O)NC3CCc4cc(OC)ccc4C3)C2=O)c1=O (stereo partly shown) [Example 37] |
| 5000 | 39 | COc1cc(F)c([C@@H]2CN(c3nccc(NCC(C)(C)O)c3C(F)(F)F)C(=O)[C@H]2NC(=O)N[C@H]2CC[C@H](C(F)F)CC2)c(F)c1 [Example 104] |
| 1 | 11 | COc1cc(F)c([C@@H]2CN(c3cccn(CC(O)C(F)(F)F)c3=O)C(=O)[C@H]2NC(=O)NC2CCc3cc(OC)ccc3C2)c(F)c1 (stereo partly shown) [Example 80] |
| > 10000 | 7.3 | COc1cc(F)c([C@@H]2CN(c3ncccc3C(F)(F)F)C(=O)[C@H]2NC(=O)NC2CCc3cc(OC)ccc3C2)c(F)c1 (stereo partly shown) [Example 47] |
| 4.8 | 3.2 | CCn1nccc(N2C[C@@H](c3c(F)cc(OC)cc3F)[C@H](NC(=O)NC3CCc4cc(OC)ccc4C3)C2=O)c1=O (single isomer, unassigned) [Example 87] |
| 77 | 12 | COc1cc(F)c([C@H]2[C@H](NC(=O)N[C@H]3CC[C@H](C(F)F)CC3)C(=O)N(c3ncccc3OC(C)C)[C@H]2C)c(F)c1 [Example 51] |
| > 10000 | 1.6 | COc1cc(F)c([C@@H]2CN(c3nccc(N4CC(C)(O)C4)c3C(F)(F)F)C(=O)[C@H]2NC(=O)N[C@H]2CC[C@H](C(F)F)CC2)c(F)c1 [Example 101] |
| > 10000 | 9.1 | COc1cc(F)c([C@@H]2CN(c3nccc(N4CCN(S(C)(=O)=O)CC4)c3C(F)(F)F)C(=O)[C@H]2NC(=O)N[C@H]2CC[C@H](C(F)F)CC2)c(F)c1 [Example 88] |
| 2.1 | 2.7 | COCCn1ccc(C)c(N2C[C@@H](c3c(F)cc(OC)cc3F)[C@H](NC(=O)NC3CCc4cc(Cl)ccc4C3)C2=O)c1=O (stereo partly shown) [Example 22] |
| 12 | 1 | COc1cc(F)c([C@@H]2CN(c3c(C)ccn(CCO)c3=O)C(=O)[C@H]2NC(=O)NC2CCc3cc(OC)ccc3C2)c(F)c1 (single isomer, unassigned) [Example 83] |
| 17 | 33 | CCn1cccc(N2C[C@@H](c3c(F)cc(OC)cc3F)[C@H](NC(=O)NC3CCc4cc(OC)ccc4C3(C)C)C2=O)c1=O (stereo partly shown) [Example 61] |
| 0.2 | 1.8 | COc1cc(F)c([C@H]2[C@H](NC(=O)NC3CCc4cc(OC)ccc4C3)C(=O)N(c3ncccc3OC)[C@H]2C)c(F)c1 (stereo partly shown) [Example 18] |
| 110 | 3.8 | COc1cc(F)c([C@@H]2CN(c3ncccc3C(F)(F)F)C(=O)[C@H]2NC(=O)NC2CCc3cc(Cl)ccc3C2)c(F)c1 (stereo partly shown) [Example 31] |
| 30.1 | 1.9 | COc1cc(F)c([C@@H]2CN(c3cccn(CCO)c3=O)C(=O)[C@H]2NC(=O)NC2CCc3cc(Cl)ccc3C2)c(F)c1 (stereo partly shown) [Example 19] |
| 18 | 2.8 | COc1cc(F)c([C@@H]2CN(c3ncccc3C(F)(F)F)C(=O)[C@H]2NC(=O)NC2CCc3ccccc3C2)c(F)c1 (stereo partly shown) [Example 24] |
| 3500 | 670 | COc1cc(F)c([C@@H]2CN(c3nccc(N4CCOCC4)c3C(F)(F)F)C(=O)[C@H]2NC(=O)N[C@H]2CC[C@H](C(F)F)CC2)c(F)c1 [Example 108] |
| 562 | 6.7 | COCCn1cccc(N2C[C@@H](c3c(F)cc(OC)cc3F)[C@H](NC(=O)NC3CCc4cc(OC)ccc4C3(C)C)C2=O)c1=O (stereo partly shown) [Example 45] |
